# Patent US7045661B2, “Crystalline forms of venlafaxine hydrochloride” (Ciba Specialty Chemicals Corporation, priority 2000, dated 2006)
# Test: Relative thermodynamic stability of crystalline forms
# Assay type: physicochemical
# Conditions: compared with the previous known Form C
structure (smiles),measurement,value
"COc1ccc(C(CN(C)C)C2(O)CCCCC2)cc1.Cl (stereo not shown) [Form B, 1-[(2-dimethylamino)-1-(4-methoxyphenyl)ethyl]cyclohexanol hydrochloride]",thermodynamic stability,thermodynamically more stable than the previous known Form C
